Measurements from patent publication US8580832B2, “Substituted phenoxy aminothiazolones as estrogen related receptor-α modulators” (Janssen Pharmaceutica N.V., priority 2007, dated 2013).
Counter-ions that a name gives are not always drawn.

Target: T1, ERR1 (also known as ERR-α or ERR-1) (Homo sapiens, UniProt P11474)
T1 construct: the ^6His-tagged-ERR1 LBD
T1 sequence (P11474 193-421 limits assumed): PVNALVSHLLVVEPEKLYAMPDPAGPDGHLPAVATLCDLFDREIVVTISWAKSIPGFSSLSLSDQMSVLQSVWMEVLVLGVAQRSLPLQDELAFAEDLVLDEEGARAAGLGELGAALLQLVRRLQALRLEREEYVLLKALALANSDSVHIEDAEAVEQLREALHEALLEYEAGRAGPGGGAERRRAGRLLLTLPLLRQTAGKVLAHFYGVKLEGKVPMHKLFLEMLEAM
Test: TR-FRET assay: disruption of co-activator peptide binding to ERR1 LBD
Type: biochemical
Conditions: 6His-tagged ERR1 LBD 6 nM, GST-SRC-2 peptide 6 nM, 25° C., 4-18 hours; average of 3 independent experiments
Outline: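 The 6His-ERR1 LBD and a GST-hSRC2 co-activator peptide were detected by α-GST Eu cryptate and α-6His-XL665 TR-FRET. Buffer was 25 mM Tris pH 8, 2.5 mM Hepes, 20 mM KCl, 1 mM DTT, 0.05 mg/mL BSA, equilibrated 4-18 h at 25° C. Dose-response curves were fitted hyperbolically and averaged over 3 independent experiments.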

SMILES	EC50 [nM]
COc1cc(/C=C2\SC(N3CCNC(=O)C3)=NC2=O)ccc1Oc1ccc(C#N)cc1Cl [Example 64, 3-Chloro-4-{2-methoxy-4-[4-oxo-2-(3-oxo-piperazin-1-yl)-4H-thiazol-5-ylidenemethyl]-phenoxy}-benzonitrile]	44
COCCNC1=NC(=O)/C(=C/c2ccc(Oc3ccc(C#N)cc3C(F)(F)F)c(OC)c2)S1 [Compound 18, 4-{2-Methoxy-4-[2-(2-methoxy-ethylamino)-4-oxo-4H-thiazol-5-ylidenemethyl]-phenoxy}-3-trifluoromethyl-benzonitrile]	112
COc1cc(/C=C2\SC(NCCn3ccnc3)=NC2=O)ccc1Oc1ccc(C#N)cc1C(F)(F)F [Example 70, 4-{4-[2-(2-Imidazol-1-yl-ethylamino)-4-oxo-4H-thiazol-5-ylidenemethyl]-2-methoxy-phenoxy}-3-trifluoromethyl-benzonitrile]	24
COc1cc(/C=C2\SC(N(C)CCN(C)C)=NC2=O)ccc1Oc1ccc(C#N)cc1C(F)(F)F [Compound 11, 4-(4-{2-[(2-Dimethylamino-ethyl)-methyl-amino]-4-oxo-4H-thiazol-5-ylidenemethyl}-2-methoxy-phenoxy)-3-trifluoromethyl-benzonitrile]	19
COc1cc(/C=C2\SC(NCCN)=NC2=O)ccc1Oc1ccc(C#N)cc1C(F)(F)F [Example 87, 4-{4-[2-(2-Amino-ethylamino)-4-oxo-4H-thiazol-5-ylidenemethyl]-2-methoxy-phenoxy}-3-trifluoromethyl-benzonitrile HCl salt]	22
N#Cc1ccc(Oc2ccc(/C=C3\SC(NCCCN4CCCC4=O)=NC3=O)cc2F)c(C(F)(F)F)c1 [Example 51, 4-(2-Fluoro-4-{4-oxo-2-[3-(2-oxo-pyrrolidin-1-yl)-propylamino]-4H-thiazol-5-ylidenemethyl}-phenoxy)-3-trifluoromethyl-benzonitrile]	29
N#Cc1ccc(Oc2ccc(/C=C3\SC(N)=NC3=O)cc2Cl)c(C(F)(F)F)c1 [Compound 3, 4-[2-Chloro-4-(2-imino-4-oxo-thiazolidin-5-ylidenemethyl)-phenoxy]-3-trifluoromethyl-benzonitrile]	87
N#Cc1ccc(Oc2ccc(/C=C3\SC(NC4CC4)=NC3=O)cc2F)c(C(F)(F)F)c1 [Compound 10, 4-[4-(2-Cyclopropylamino-4-oxo-4H-thiazol-5-ylidenemethyl)-2-fluoro-phenoxy]-3-trifluoromethyl-benzonitrile]	52
COc1cc(/C=C2\SC(NCc3cccnc3)=NC2=O)ccc1Oc1ccc(C#N)cc1C(F)(F)F [Compound 19, 4-(2-Methoxy-4-{4-oxo-2-[(pyridin-3-ylmethyl)-amino]-4H-thiazol-5-ylidenemethyl}-phenoxy)-3-trifluoromethyl-benzonitrile]	18
COc1cc(/C=C2\SC(N(CCO)CCO)=NC2=O)ccc1Oc1ccc(C#N)cc1C(F)(F)F [Compound 12, 4-(4-{2-[Bis-(2-hydroxy-ethyl)-amino]-4-oxo-4H-thiazol-5-ylidenemethyl}-2-methoxy-phenoxy)-3-trifluoromethyl-benzonitrile]	25
COc1cc(/C=C2\SC(NCCN3CCCCC3)=NC2=O)ccc1Oc1ccc(C#N)cc1C(F)(F)F [Compound 25, 4-{2-Methoxy-4-[4-oxo-2-(2-piperidin-1-yl-ethylamino)-4H-thiazol-5-ylidenemethyl]-phenoxy}-3-trifluoromethyl-benzonitrile]	18
N#Cc1ccc(Oc2ccc(/C=C3\SC(N4CCC(O)C4)=NC3=O)cc2F)c(C(F)(F)F)c1 (stereo not drawn) [Example 45, 4-{2-Fluoro-4-[2-(3-hydroxy-pyrrolidin-1-yl)-4-oxo-4H-thiazol-5-ylidenemethyl]-phenoxy}-3-trifluoromethyl-benzonitrile]	39
COC(=O)CCCNC1=NC(=O)/C(=C/c2ccc(Oc3ccc(C#N)cc3C(F)(F)F)c(OC)c2)S1 [Example 82, 4-{5-[4-(4-Cyano-2-trifluoromethyl-phenoxy)-3-methoxy-benzylidene]-4-oxo-4,5-dihydro-thiazol-2-ylamino}-butyric acid methyl ester]	55
COc1cc(/C=C2\SC(N3CCCC(O)C3)=NC2=O)ccc1Oc1ccc(C(N)=O)cc1C(F)(F)F (stereo not drawn) [Example 114, 4-{4-[2-(3-Hydroxy-piperidin-1-yl)-4-oxo-4H-thiazol-5-ylidenemethyl]-2-methoxy-phenoxy}-3-trifluoromethyl-benzamide]	300
COc1cc(/C=C2\SC(NCCO)=NC2=O)ccc1Oc1ccc(C#N)cc1C(F)(F)F [Example 32, 4-{4-[2-(2-Hydroxy-ethylamino)-4-oxo-4H-thiazol-5-ylidenemethyl]-2-methoxy-phenoxy}-3-trifluoromethyl-benzonitrile]	21
COc1cc(/C=C2\SC(NCc3ccccn3)=NC2=O)ccc1Oc1ccc(C#N)cc1C(F)(F)F [Compound 17, 4-(2-Methoxy-4-{4-oxo-2-[(pyridin-2-ylmethyl)-amino]-4H-thiazol-5-ylidenemethyl}-phenoxy)-3-trifluoromethyl-benzonitrile]	29
COc1cc(/C=C2\SC(NCC3CNCCO3)=NC2=O)ccc1Oc1ccc(C#N)cc1C(F)(F)F (stereo not drawn) [Example 80, 4-(2-Methoxy-4-{2-[(morpholin-2-ylmethyl)-amino]-4-oxo-4H-thiazol-5-ylidenemethyl}-phenoxy)-3-trifluoromethyl-benzonitrile]	35
N#Cc1ccc(Oc2ccc(/C=C3\SC(NCCn4cncn4)=NC3=O)cc2F)c(C(F)(F)F)c1 [Example 98, 4-{2-Fluoro-4-[4-oxo-2-(2-[1,2,4]triazol-1-yl-ethylamino)-4H-thiazol-5-ylidenemethyl]-phenoxy}-3-trifluoromethyl-benzonitrile]	17

These reach a lower EC50. Values come first.

EC50 [nM]	SMILES
16	COc1cc(/C=C2\SC(NCCn3cncn3)=NC2=O)ccc1Oc1ccc(C#N)cc1C(F)(F)F [Example 72, 4-{2-Methoxy-4-[4-oxo-2-(2-[1,2,4]triazol-1-yl-ethylamino)-4H-thiazol-5-ylidenemethyl]-phenoxy}-3-trifluoromethyl-benzonitrile]
16	COc1cc(/C=C2\SC(NCC(=O)O)=NC2=O)ccc1Oc1ccc(C#N)cc1C(F)(F)F [Example 76, {5-[4-(4-Cyano-2-trifluoromethyl-phenoxy)-3-methoxy-benzylidene]-4-oxo-4,5-dihydro-thiazol-2-ylamino}-acetic acid]
15	COc1cc(/C=C2\SC(NC3CC3)=NC2=O)ccc1Oc1ccc(C#N)cc1C(F)(F)F [Compound 9, 4-[4-(2-Cyclopropylamino-4-oxo-4H-thiazol-5-ylidenemethyl)-2-methoxy-phenoxy]-3-trifluoromethyl-benzonitrile]
13	COc1cc(/C=C2\SC(NCCCN(C)C)=NC2=O)ccc1Oc1ccc(C#N)cc1C(F)(F)F [Compound 26, 4-{4-[2-(3-Dimethylamino-propylamino)-4-oxo-4H-thiazol-5-ylidenemethyl]-2-methoxy-phenoxy}-3-trifluoromethyl-benzonitrile]
12	COc1cc(/C=C2\SC(NCCc3cccnc3)=NC2=O)ccc1Oc1ccc(C#N)cc1C(F)(F)F [Example 29, 4-{2-Methoxy-4-[4-oxo-2-(2-pyridin-3-yl-ethylamino)-4H-thiazol-5-ylidenemethyl]-phenoxy}-3-trifluoromethyl-benzonitrile]
11	COc1cc(/C=C2\SC(N3CCN(C)CC3)=NC2=O)ccc1Oc1ccc(C#N)cc1C(F)(F)F [Compound 7, 4-{2-Methoxy-4-[2-(4-methyl-piperazin-1-yl)-4-oxo-4H-thiazol-5-ylidenemethyl]-phenoxy}-3-trifluoromethyl-benzonitrile]
8	COc1cc(/C=C2\SC(NCCN3CCNC(=O)C3)=NC2=O)ccc1Oc1ccc(C#N)cc1C(F)(F)F [Example 105, 4-(2-Methoxy-4-{4-oxo-2-[2-(3-oxo-piperazin-1-yl)-ethylamino]-4H-thiazol-5-ylidenemethyl}-phenoxy)-3-trifluoromethyl-benzonitrile]
7	COc1cc(/C=C2\SC(N3CC(C)OC(C)C3)=NC2=O)ccc1Oc1ccc(C#N)cc1C(F)(F)F (stereo not drawn) [Example 40, 4-{4-[2-(2,6-Dimethyl-morpholin-4-yl)-4-oxo-4H-thiazol-5-ylidenemethyl]-2-methoxy-phenoxy}-3-trifluoromethyl-benzonitrile]
7	COc1cc(/C=C2\SC(NCCc3ccncc3)=NC2=O)ccc1Oc1ccc(C#N)cc1C(F)(F)F [Example 28, 4-{2-Methoxy-4-[4-oxo-2-(2-pyridin-4-yl-ethylamino)-4H-thiazol-5-ylidenemethyl]-phenoxy}-3-trifluoromethyl-benzonitrile]
7	COC(=O)CNC1=NC(=O)/C(=C/c2ccc(Oc3ccc(C#N)cc3C(F)(F)F)c(OC)c2)S1 [Example 84, {5-[4-(4-Cyano-2-trifluoromethyl-phenoxy)-3-methoxy-benzylidene]-4-oxo-4,5-dihydro-thiazol-2-ylamino}-acetic acid methyl ester]
6	COc1cc(/C=C2\SC(N3CCN(C(C)=O)CC3)=NC2=O)ccc1Oc1ccc(C#N)cc1C(F)(F)F [Example 31, 4-{4-[2-(4-Acetyl-piperazin-1-yl)-4-oxo-4H-thiazol-5-ylidenemethyl]-2-methoxy-phenoxy}-3-trifluoromethyl-benzonitrile]
3	COc1cc(/C=C2\SC(N3CC(C(=O)O)C3)=NC2=O)ccc1Oc1ccc(C#N)cc1C(F)(F)F [Example 106, 1-{5-[4-(4-Cyano-2-trifluoromethyl-phenoxy)-3-methoxy-benzylidene]-4-oxo-4,5-dihydro-thiazol-2-yl}-azetidine-3-carboxylic acid]
